According to PubChem BioAssay AID228 (DTP/NCI, 2004):
Where “and” joins values, the source holds several entries; their conditions need not be identical. Identical values can stand only once. Inconclusive results are not listed.

Tested on: BDF1 mice, Friend leukemia sc, tumor weight T/C
Test: NCI In Vivo Anticancer Drug Screen. Data for tumor model Friend Virus Leukemia (Solid) (subcutaneous) in B6D2F1 (BDF1) mice
Conditions: endpoint: mean tumor weight, higher = larger tumour
Protocol: The antitumor activity of compounds was measured in mice bearing transplantable tumors. Survival or tumor size were measured and the results are expressed as the measurement made in the treated group (T) divided by the measurement made in the vehicle treated control group (C). The tumor model used in this assay is Friend Virus Leukemia (Solid) (subcutaneous) in B6D2F1 (BDF1) mice

[1] = dose: 1.0 mg/kg/injection, schedule: Q01DX011 (ip), vehicle: carboxymethylcellulose (CMC)
[2] = dose: 2.0 mg/kg/injection, schedule: Q01DX011 (ip), vehicle: carboxymethylcellulose (CMC)
[3] = dose: 4.0 mg/kg/injection, schedule: Q01DX011 (ip), vehicle: carboxymethylcellulose (CMC)
[4] = dose: 8.0 mg/kg/injection, schedule: Q01DX011 (ip), vehicle: carboxymethylcellulose (CMC)
[5] = dose: 16.0 mg/kg/injection, schedule: Q01DX011 (ip), vehicle: carboxymethylcellulose (CMC)
[6] = dose: 26.0 mg/kg/injection, schedule: Q01DX011 (ip), vehicle: carboxymethylcellulose (CMC)
[7] = dose: 25.0 mg/kg/injection, schedule: Q01DX011 (ip), vehicle: saline
[8] = dose: 50.0 mg/kg/injection, schedule: Q01DX011 (ip), vehicle: saline
[9] = dose: 3.0 mg/kg/injection, schedule: Q01DX011 (ip), vehicle: carboxymethylcellulose (CMC)
[10] = dose: 6.0 mg/kg/injection, schedule: Q01DX011 (ip), vehicle: carboxymethylcellulose (CMC)
[11] = dose: 24.0 mg/kg/injection, schedule: Q01DX011 (ip), vehicle: carboxymethylcellulose (CMC)
[12] = dose: 50.0 mg/kg/injection, schedule: Q01DX011 (ip), vehicle: carboxymethylcellulose (CMC)
[13] = dose: 15.0 mg/kg/injection, schedule: Q01DX011 (ip), vehicle: saline

CCc1ccccc1N1CCN(C(=O)c2cc(OC)c(OC)c(OC)c2)CC1
T/C (dose: 0.25 mg/kg/injection, schedule: Q01DX011 (ip), vehicle: carboxymethylcellulose (CMC)): 64 % of control | T/C (dose: 0.5 mg/kg/injection, schedule: Q01DX011 (ip), vehicle: carboxymethylcellulose (CMC)): 73 % of control | T/C [1]: 64 % of control | T/C [2]: 53 % of control and 35 % of control | T/C [3]: 67 % of control | T/C [4]: 40 % of control | T/C [5]: 42 % of control | T/C (dose: 31.0 mg/kg/injection, schedule: Q01DX011 (ip), vehicle: other): 11 % of control

O=NN1CCN(N=O)CC1
T/C (dose: 8.3 mg/kg/injection, schedule: Q01DX011 (ip), vehicle: carboxymethylcellulose (CMC)): 94 % of control | T/C (dose: 16.7 mg/kg/injection, schedule: Q01DX011 (ip), vehicle: carboxymethylcellulose (CMC)): 120 % of control | T/C (dose: 23.5 mg/kg/injection, schedule: Q01DX011 (ip), vehicle: carboxymethylcellulose (CMC)): 95 % of control | T/C [6]: 85 % of control

C[C@]12C=CC(=O)C=C1CC[C@@H]1[C@@H]2[C@@H](O)C[C@@]2(C)[C@H]1CC[C@]2(O)C(=O)COC(=O)C1CCCC1
T/C (dose: 0.12 mg/kg/injection, schedule: Q01DX011 (sc), vehicle: steriod suspending solution): 103 % of control | T/C (dose: 0.25 mg/kg/injection, schedule: Q01DX011 (sc), vehicle: steriod suspending solution): 102 % of control | T/C (dose: 0.5 mg/kg/injection, schedule: Q01DX011 (sc), vehicle: steriod suspending solution): 95 % of control | T/C (dose: 3.0 mg/kg/injection, schedule: Q01DX011 (sc), vehicle: steriod suspending solution): 46 % of control | T/C (dose: 6.0 mg/kg/injection, schedule: Q01DX011 (sc), vehicle: steriod suspending solution): 47 % of control | T/C (dose: 6.3 mg/kg/injection, schedule: Q01DX011 (sc), vehicle: steriod suspending solution): 38 % of control | T/C (dose: 12.0 mg/kg/injection, schedule: Q01DX011 (sc), vehicle: steriod suspending solution): 33 % of control | T/C (dose: 12.5 mg/kg/injection, schedule: Q01DX011 (sc), vehicle: steriod suspending solution): 25 % of control | T/C (dose: 25.0 mg/kg/injection, schedule: Q01DX011 (sc), vehicle: steriod suspending solution): 10 % of control and 24 % of control | T/C (dose: 50.0 mg/kg/injection, schedule: Q01DX011 (sc), vehicle: steriod suspending solution): 8 % of control and 14 % of control | T/C (dose: 100.0 mg/kg/injection, schedule: Q01DX011 (sc), vehicle: steriod suspending solution): 7 % of control

OCC1OC(Oc2ccc(O)cc2)C(O)C(O)C1O (stereo unspecified)
T/C [7]: 84 % of control | T/C [8]: 97 % of control | T/C (dose: 100.0 mg/kg/injection, schedule: Q01DX011 (ip), vehicle: saline): 97 % of control | T/C (dose: 200.0 mg/kg/injection, schedule: Q01DX011 (ip), vehicle: saline): 75 % of control

NC(C=O)C(O)C(O)C(O)CO (stereo unspecified)
T/C (dose: 125.0 mg/kg/injection, schedule: Q01DX011 (ip), vehicle: carboxymethylcellulose (CMC)): 102 % of control | T/C (dose: 250.0 mg/kg/injection, schedule: Q01DX011 (ip), vehicle: carboxymethylcellulose (CMC)): 168 % of control | T/C (dose: 1000.0 mg/kg/injection, schedule: Q01DX011 (ip), vehicle: carboxymethylcellulose (CMC)): 115 % of control

Cc1c2ccc3ccccc3c2c[n+]2ccccc12
T/C [9]: 97 % of control | T/C [10]: 105 % of control | T/C [11]: 61 % of control and 37 % of control

O=C(O)CCCc1ccc(N(CCCl)CCCl)cc1
T/C (dose: 1.87 mg/kg/injection, schedule: Q01DX011 (ip), vehicle: carboxymethylcellulose (CMC)): 93 % of control | T/C (dose: 7.5 mg/kg/injection, schedule: Q01DX011 (ip), vehicle: carboxymethylcellulose (CMC)): 76 % of control and 91 % of control

NC1(C(=O)O)CCCC1
T/C (dose: 4.5 mg/kg/injection, schedule: Q01DX011 (ip), vehicle: carboxymethylcellulose (CMC)): 95 % of control | T/C (dose: 9.0 mg/kg/injection, schedule: Q01DX011 (ip), vehicle: carboxymethylcellulose (CMC)): 89 % of control | T/C (dose: 18.0 mg/kg/injection, schedule: Q01DX011 (ip), vehicle: carboxymethylcellulose (CMC)): 63 % of control | T/C (dose: 36.0 mg/kg/injection, schedule: Q01DX011 (ip), vehicle: carboxymethylcellulose (CMC)): 53 % of control

COc1ccc(Nc2ccnc3cc(Cl)ccc23)cc1CN(CCCl)CCCl
T/C [1]: 81 % of control | T/C [2]: 76 % of control | T/C [3]: 42 % of control

CCN(CC)CCNc1ccc(C)c2sc3ccccc3c(=O)c12
T/C [1]: 184 % of control | T/C [10]: 199 % of control | T/C (dose: 6.25 mg/kg/injection, schedule: Q01DX011 (ip), vehicle: carboxymethylcellulose (CMC)): 37 % of control | T/C [4]: 174 % of control | T/C (dose: 8.1 mg/kg/injection, schedule: Q01DX011 (ip), vehicle: carboxymethylcellulose (CMC)): 199 % of control | T/C (dose: 12.5 mg/kg/injection, schedule: Q01DX011 (ip), vehicle: carboxymethylcellulose (CMC)): 35 % of control | T/C [5]: 274 % of control | T/C (dose: 16.2 mg/kg/injection, schedule: Q01DX011 (ip), vehicle: carboxymethylcellulose (CMC)): 179 % of control | T/C [6]: 111 % of control | T/C (dose: 32.0 mg/kg/injection, schedule: Q01DX011 (ip), vehicle: carboxymethylcellulose (CMC)): 66 % of control | T/C (dose: 33.0 mg/kg/injection, schedule: Q01DX011 (ip), vehicle: carboxymethylcellulose (CMC)): 69 % of control | T/C (dose: 43.0 mg/kg/injection, schedule: Q01DX011 (ip), vehicle: carboxymethylcellulose (CMC)): 72 % of control | T/C [12]: 31 % of control and 32 % of control | T/C (dose: 75.0 mg/kg/injection, schedule: Q01DX011 (ip), vehicle: carboxymethylcellulose (CMC)): 3 % of control and 7 % of control

O=C(c1ccc(C(=O)N2CC2)cc1)N1CC1
T/C [9]: 79 % of control | T/C [10]: 90 % of control | T/C (dose: 12.0 mg/kg/injection, schedule: Q01DX011 (ip), vehicle: carboxymethylcellulose (CMC)): 74 % of control | T/C [11]: 76 % of control

NNc1ncnc2nc[nH]c12
T/C [7]: 118 % of control | T/C [8]: 61 % of control

S=c1nc[nH]c2nc[nH]c12
T/C (dose: 0.03 mg/kg/injection, schedule: Q01DX011 (ip), vehicle: carboxymethylcellulose (CMC)): 55 % of control | T/C (dose: 0.05 mg/kg/injection, schedule: Q01DX011 (ip), vehicle: carboxymethylcellulose (CMC)): 61 % of control | T/C (dose: 3.5 mg/kg/injection, schedule: Q01DX011 (ip), vehicle: carboxymethylcellulose (CMC)): 21 % of control | T/C (dose: 5.0 mg/kg/injection, schedule: Q01DX011 (ip), vehicle: carboxymethylcellulose (CMC)): 2 % of control and 10 % of control and 12 % of control | T/C (dose: 7.0 mg/kg/injection, schedule: Q01DX011 (ip), vehicle: carboxymethylcellulose (CMC)): 13 % of control | T/C (dose: 14.0 mg/kg/injection, schedule: Q01DX011 (ip), vehicle: carboxymethylcellulose (CMC)): 9 % of control | T/C (dose: 42.0 mg/kg/injection, schedule: Q01DX011 (ip), vehicle: carboxymethylcellulose (CMC)): 4 % of control and 7 % of control and 16 % of control

O=C(N[C@H](CO)[C@H](O)c1ccc([N+](=O)[O-])cc1)C(Cl)Cl
T/C (dose: 47.0 mg/kg/injection, schedule: Q01DX011 (ip), vehicle: carboxymethylcellulose (CMC)): 105 % of control | T/C (dose: 95.0 mg/kg/injection, schedule: Q01DX011 (ip), vehicle: carboxymethylcellulose (CMC)): 98 % of control | T/C (dose: 191.0 mg/kg/injection, schedule: Q01DX011 (ip), vehicle: carboxymethylcellulose (CMC)): 77 % of control | T/C (dose: 383.0 mg/kg/injection, schedule: Q01DX011 (ip), vehicle: carboxymethylcellulose (CMC)): 108 % of control

CSc1ncnc2c1ncn2C1OC(CO)C(O)C1O (stereo unspecified)
T/C (dose: 6.0 mg/kg/injection, schedule: Q01DX011 (ip), vehicle: saline): 105 % of control | T/C (dose: 9.0 mg/kg/injection, schedule: Q01DX011 (ip), vehicle: saline): 121 % of control | T/C (dose: 12.5 mg/kg/injection, schedule: Q01DX011 (ip), vehicle: saline): 99 % of control | T/C [13]: 112 % of control

O=C(O)CC(O)(CC(=O)O)C(=O)O.[Ga]
T/C (dose: 25.0 mg/kg/injection, schedule: Q01DX011 (ip), vehicle: carboxymethylcellulose (CMC)): 108 % of control | T/C [12]: 104 % of control

CN(C)C(=S)N=Nc1c(O)[nH]c2ccccc12
T/C [13]: 76 % of control | T/C (dose: 30.0 mg/kg/injection, schedule: Q01DX011 (ip), vehicle: saline): 105 % of control | T/C (dose: 60.0 mg/kg/injection, schedule: Q01DX011 (ip), vehicle: saline): 85 % of control | T/C (dose: 120.0 mg/kg/injection, schedule: Q01DX011 (ip), vehicle: saline): 54 % of control

CCCCCCCCCCCCCS
T/C [12]: 109 % of control | T/C (dose: 100.0 mg/kg/injection, schedule: Q01DX011 (ip), vehicle: carboxymethylcellulose (CMC)): 105 % of control | T/C (dose: 200.0 mg/kg/injection, schedule: Q01DX011 (ip), vehicle: carboxymethylcellulose (CMC)): 101 % of control
